Data published in ChEMBL document CHEMBL5696439 (Cancer Res, 2010).
pIC50: −log10 of the molar value. Calls of active or inactive are those of the source. The rule behind the calls is not given here.

Legend:
[1] = target: Serine/threonine-protein kinase SMG1 (Homo sapiens, UniProt Q96Q15); experiment: Inhibition of human SMG1 using glutathione S-transferase-p53 as substrate by DELFIA
[2] = test system: Tyrosine-protein kinase ABL1 (Homo sapiens), P00519 [T315I]; experiment: Inhibition of recombinant human full-length His-tagged ABL1 T315I mutant expressed in insect cells at 2 uM using Tyr 02 as substrate measured after 1 hr by Z'-LYTE assay relative to control; conditions: Insect cell
[3] = target: Casein kinase I isoform gamma-2 (Homo sapiens) (UniProt P78368); experiment: Inhibition of recombinant human full-length His-tagged CSNK1G2 expressed in baculovirus expression system at 2 uM using Ser/Thr 05 as substrate measured after 1 hr by Z'-LYTE assay relative to control
[4] = target: Casein kinase II subunit alpha (Homo sapiens) (UniProt P68400); experiment: Inhibition of recombinant human full-length His-tagged CSNK2A1 expressed in baculovirus expression system at 2 uM using Ser/Thr 11 as substrate measured after 1 hr by Z'-LYTE assay relative to control
[5] = target: Ephrin type-B receptor 3 (Homo sapiens) (UniProt P54753); experiment: Inhibition of recombinant human GST-tagged EPHB3 (623-907 residues) expressed in insect cells at 2 uM using Tyr 02 as substrate measured after 1 hr by Z'-LYTE assay relative to control; conditions: Insect cell
[6] = target: Glycogen synthase kinase-3 beta (Homo sapiens) (UniProt P49841); experiment: Inhibition of recombinant human full-length His-tagged GSK3B expressed in baculovirus expression system at 2 uM using Ser/Thr 09 as substrate measured after 1 hr by Z'-LYTE assay relative to control
[7] = target: Homeodomain-interacting protein kinase 1 (Homo sapiens) (UniProt Q86Z02); experiment: Inhibition of recombinant human GST-tagged HIPK1 (158-555 residues) expressed in insect cells at 2 uM using Ser/Thr 09 as substrate measured after 1 hr by Z'-LYTE assay relative to control; conditions: Insect cell
[8] = target: MAP kinase-activated protein kinase 5 (Homo sapiens) (UniProt Q8IW41); experiment: Inhibition of recombinant human full length His-tagged MAPKAPK5 expressed in baculovirus expression system at 2 uM using Ser/Thr 04 as substrate measured after 1 hr by Z'-LYTE assay relative to control
[9] = target: Serine/threonine-protein kinase Nek2 (Homo sapiens) (UniProt P51955); experiment: Inhibition of recombinant human full length His-tagged NEK2 expressed in baculovirus expression system at 2 uM using Ser/Thr 07 as substrate measured after 1 hr by Z'-LYTE assay relative to control
[10] = target: Serine/threonine-protein kinase PAK 4 (Homo sapiens) (UniProt O96013); experiment: Inhibition of recombinant human GST-tagged PAK4 (295-591 residues) expressed in insect cells at 2 uM using Ser/Thr 20 as substrate measured after 1 hr by Z'-LYTE assay relative to control; conditions: Insect cell
[11] = target: Protein kinase C theta type (Homo sapiens) (UniProt Q04759); experiment: Inhibition of recombinant human PRKCQ at 2 uM using Ser/Thr 07 as substrate measured after 1 hr by Z'-LYTE assay relative to control
[12] = target: Serine/threonine-protein kinase D1 (Homo sapiens) (UniProt Q15139); experiment: Inhibition of recombinant human full length GST-tagged PRKD1 expressed in insect cells at 2 uM using Ser/Thr 17 as substrate measured after 1 hr by Z'-LYTE assay relative to control; conditions: Insect cell
[13] = test system: RAF proto-oncogene serine/threonine-protein kinase (Homo sapiens), P04049 [Y340D,Y341D]; experiment: Inhibition of recombinant human GST-tagged RAF1 Y340D/Y341D double mutant (306-648 residues) expressed in insect cells at 2 uM using Ser/Thr 03 as substrate measured after 1 hr by Z'-LYTE assay relative to control; conditions: Insect cell
[14] = target: Rho-associated protein kinase 1 (Homo sapiens) (UniProt Q13464); experiment: Inhibition of recombinant human GST-tagged ROCK1 (1-535 residues) expressed in insect cells at 2 uM using Ser/Thr 07 as substrate measured after 1 hr by Z'-LYTE assay relative to control; conditions: Insect cell
[15] = target: Serine/threonine-protein kinase 24 (Homo sapiens) (UniProt Q9Y6E0); experiment: Inhibition of recombinant human full length GST-tagged STK24 expressed in insect cells at 2 uM using Ser/Thr 07 as substrate measured after 1 hr by Z'-LYTE assay relative to control; conditions: Insect cell
[16] = target: Serine/threonine-protein kinase 25 (Homo sapiens) (UniProt O00506); experiment: Inhibition of recombinant human full length GST-tagged STK25 expressed in insect cells at 2 uM using Ser/Thr 07 as substrate measured after 1 hr by Z'-LYTE assay relative to control; conditions: Insect cell
[17] = target: Tyrosine-protein kinase Yes (Homo sapiens) (UniProt P07947); experiment: Inhibition of recombinant human full length GST-tagged YES1 expressed in insect cells at 2 uM using Ser/Thr 07 as substrate measured after 1 hr by Z'-LYTE assay relative to control; conditions: Insect cell
Rat1 = experiment: Inhibition of mTORC2 in rat Rat1 cells assessed as reduction in AKT phosphorylation at T308 level at 0.01 to 2 uM incubated for 1 hrs in the presence of IGF-1 stimulation by immunoblot assay; assay type: cell-based; conditions: dose 0.01-2 µM
MDA-MB-468 = experiment: Antiproliferative activity against human MDA-MB-468 cells assessed as cell growth inhibition incubated for 24 hrs by MTS assay; assay type: functional, cell-based; conditions: MDA-MB-468, 24 h
PC3MM2 = experiment: Antiproliferative activity against human PC3MM2 cells assessed as cell growth inhibition incubated for 24 hrs by MTS assay; assay type: functional, cell-based; conditions: PC3MM2, 24 h
NCI-H1975 = experiment: Induction of apoptosis in human NCI-H1975 cells assessed as increase in PARP cleavage at 0.3 to 3 micromol/L incubated for 48 hrs by Western blot analysis; assay type: functional, cell-based; conditions: dose 0.3-3 µmol/L
MDA-MB-361 [18] = experiment: Induction of apoptosis in human MDA-MB-361 cells assessed as decrease in AKT phosphorylation at S473 level at 0.05 to 5 micromol/L incubated for 48 hrs by Western blot analysis; assay type: functional, cell-based; conditions: dose 0.05-5 µmol/L
MDA-MB-361 [19] = experiment: Induction of apoptosis in human MDA-MB-361 cells assessed as increase in G1 phase at 5 micromol/L incubated for 24 hrs by FACS analysis relative to control; assay type: functional; conditions: dose 5 µmol/L, at 5 µM
MDA-MB-361 [20] = experiment: Inhibition of protein synthesis in human MDA-MB-361 cells at 0.3 micromol/L incubated for 3 hrs by [3H] methionine incorporation based scintillation counter analysis relative to control; assay type: functional; conditions: MDA-MB-361, 3 h, dose 0.3 µmol/L
A549 [21] = experiment: Antitumor activity against human A549 cells xenografted in female nude mouse model assessed as suppression in tumor growth at 50 mg/kg, po qd administered as 5 days on/2 days off regimen for 4 cycles relative to control; assay type: functional; conditions: time 28 day
A549 [22] = experiment: Antitumor activity against human A549 cells xenografted in female nude mouse model assessed as suppression in tumor growth at 10 mg/kg, po qd administered as 5 days on/2 days off regimen for 4 cycles; assay type: functional, organism-based; conditions: time 28.0 day

MAP kinase-activated protein kinase 5 (Homo sapiens), sequence (Q8IW41 whole entry): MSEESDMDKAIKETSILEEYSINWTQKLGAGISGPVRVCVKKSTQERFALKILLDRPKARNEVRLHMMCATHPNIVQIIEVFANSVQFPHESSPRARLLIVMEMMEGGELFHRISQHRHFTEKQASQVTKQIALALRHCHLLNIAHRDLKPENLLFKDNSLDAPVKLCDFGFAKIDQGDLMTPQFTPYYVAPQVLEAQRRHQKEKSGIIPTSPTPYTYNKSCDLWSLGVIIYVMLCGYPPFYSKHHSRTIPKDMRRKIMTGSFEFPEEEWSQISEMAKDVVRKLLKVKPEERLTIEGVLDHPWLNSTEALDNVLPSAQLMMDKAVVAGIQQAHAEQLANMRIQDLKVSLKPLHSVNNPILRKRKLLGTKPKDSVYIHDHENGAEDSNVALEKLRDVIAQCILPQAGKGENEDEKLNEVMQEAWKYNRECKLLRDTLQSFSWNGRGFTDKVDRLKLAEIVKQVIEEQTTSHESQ
Glycogen synthase kinase-3 beta (Homo sapiens), sequence (P49841 whole entry, looked up, the tested form may be a part): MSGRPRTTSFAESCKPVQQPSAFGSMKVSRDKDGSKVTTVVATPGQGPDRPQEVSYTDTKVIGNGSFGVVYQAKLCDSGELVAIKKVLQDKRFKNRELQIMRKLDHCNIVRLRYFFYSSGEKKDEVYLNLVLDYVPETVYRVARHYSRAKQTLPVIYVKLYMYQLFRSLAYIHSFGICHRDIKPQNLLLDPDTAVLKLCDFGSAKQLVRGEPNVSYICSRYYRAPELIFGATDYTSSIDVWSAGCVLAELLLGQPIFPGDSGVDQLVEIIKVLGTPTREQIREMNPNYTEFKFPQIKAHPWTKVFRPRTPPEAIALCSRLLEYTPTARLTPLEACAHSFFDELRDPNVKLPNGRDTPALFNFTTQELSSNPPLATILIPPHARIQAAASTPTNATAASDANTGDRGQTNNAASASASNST
Ephrin type-B receptor 3 (Homo sapiens), sequence (P54753 whole entry, the tested form may be a part): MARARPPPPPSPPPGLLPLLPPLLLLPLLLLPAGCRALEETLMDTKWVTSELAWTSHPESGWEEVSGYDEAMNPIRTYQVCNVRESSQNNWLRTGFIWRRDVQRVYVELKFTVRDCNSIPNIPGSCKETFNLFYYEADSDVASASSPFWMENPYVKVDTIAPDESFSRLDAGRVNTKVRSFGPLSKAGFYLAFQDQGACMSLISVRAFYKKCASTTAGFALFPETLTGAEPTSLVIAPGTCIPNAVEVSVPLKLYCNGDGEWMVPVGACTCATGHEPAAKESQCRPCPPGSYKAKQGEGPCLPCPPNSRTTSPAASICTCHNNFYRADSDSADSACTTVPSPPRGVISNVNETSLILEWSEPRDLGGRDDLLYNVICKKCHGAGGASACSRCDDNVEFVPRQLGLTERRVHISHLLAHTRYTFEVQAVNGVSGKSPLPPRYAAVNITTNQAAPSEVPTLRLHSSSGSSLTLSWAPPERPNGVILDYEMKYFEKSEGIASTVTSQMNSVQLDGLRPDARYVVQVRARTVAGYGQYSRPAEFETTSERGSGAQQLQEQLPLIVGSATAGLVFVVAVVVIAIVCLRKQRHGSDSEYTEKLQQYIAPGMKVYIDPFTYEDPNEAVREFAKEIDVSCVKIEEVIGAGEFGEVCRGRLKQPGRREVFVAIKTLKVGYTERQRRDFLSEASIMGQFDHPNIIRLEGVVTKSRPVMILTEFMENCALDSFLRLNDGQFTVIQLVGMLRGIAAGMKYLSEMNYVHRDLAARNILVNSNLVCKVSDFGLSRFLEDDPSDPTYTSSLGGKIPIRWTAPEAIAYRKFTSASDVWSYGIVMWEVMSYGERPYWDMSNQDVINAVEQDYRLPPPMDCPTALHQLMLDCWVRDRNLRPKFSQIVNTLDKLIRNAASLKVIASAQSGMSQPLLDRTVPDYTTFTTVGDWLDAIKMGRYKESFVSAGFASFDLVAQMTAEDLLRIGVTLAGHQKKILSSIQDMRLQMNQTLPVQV
Casein kinase II subunit alpha (Homo sapiens), sequence (P68400 whole entry, looked up, the tested form may be a part): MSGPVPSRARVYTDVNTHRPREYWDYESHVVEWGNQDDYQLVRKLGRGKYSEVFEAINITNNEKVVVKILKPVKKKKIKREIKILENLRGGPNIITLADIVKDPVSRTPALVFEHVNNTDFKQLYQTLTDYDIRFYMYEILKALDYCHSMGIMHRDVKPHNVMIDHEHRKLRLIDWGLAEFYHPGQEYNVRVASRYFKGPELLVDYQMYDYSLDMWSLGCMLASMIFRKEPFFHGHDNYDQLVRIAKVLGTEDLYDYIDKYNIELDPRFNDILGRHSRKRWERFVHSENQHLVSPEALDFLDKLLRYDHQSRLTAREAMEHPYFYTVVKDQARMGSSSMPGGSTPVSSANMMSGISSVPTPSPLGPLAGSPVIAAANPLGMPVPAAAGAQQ
Serine/threonine-protein kinase PAK 4 (Homo sapiens), sequence (O96013 whole entry, looked up, the tested form may be a part): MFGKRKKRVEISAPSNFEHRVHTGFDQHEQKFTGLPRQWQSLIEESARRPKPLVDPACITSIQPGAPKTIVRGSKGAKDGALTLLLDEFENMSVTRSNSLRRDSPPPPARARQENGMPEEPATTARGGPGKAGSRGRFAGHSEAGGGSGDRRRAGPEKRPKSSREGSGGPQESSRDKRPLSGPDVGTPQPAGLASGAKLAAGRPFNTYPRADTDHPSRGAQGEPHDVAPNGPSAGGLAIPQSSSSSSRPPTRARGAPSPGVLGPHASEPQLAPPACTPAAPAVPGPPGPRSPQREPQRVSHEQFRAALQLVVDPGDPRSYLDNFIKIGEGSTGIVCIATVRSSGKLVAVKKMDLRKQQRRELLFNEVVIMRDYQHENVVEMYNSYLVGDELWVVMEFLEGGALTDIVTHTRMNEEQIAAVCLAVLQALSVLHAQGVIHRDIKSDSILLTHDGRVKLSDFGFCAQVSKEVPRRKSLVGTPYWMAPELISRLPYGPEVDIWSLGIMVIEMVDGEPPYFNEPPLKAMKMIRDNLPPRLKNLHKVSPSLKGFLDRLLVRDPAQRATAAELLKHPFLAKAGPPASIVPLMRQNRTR
Protein kinase C theta type (Homo sapiens), sequence (Q04759 whole entry, looked up): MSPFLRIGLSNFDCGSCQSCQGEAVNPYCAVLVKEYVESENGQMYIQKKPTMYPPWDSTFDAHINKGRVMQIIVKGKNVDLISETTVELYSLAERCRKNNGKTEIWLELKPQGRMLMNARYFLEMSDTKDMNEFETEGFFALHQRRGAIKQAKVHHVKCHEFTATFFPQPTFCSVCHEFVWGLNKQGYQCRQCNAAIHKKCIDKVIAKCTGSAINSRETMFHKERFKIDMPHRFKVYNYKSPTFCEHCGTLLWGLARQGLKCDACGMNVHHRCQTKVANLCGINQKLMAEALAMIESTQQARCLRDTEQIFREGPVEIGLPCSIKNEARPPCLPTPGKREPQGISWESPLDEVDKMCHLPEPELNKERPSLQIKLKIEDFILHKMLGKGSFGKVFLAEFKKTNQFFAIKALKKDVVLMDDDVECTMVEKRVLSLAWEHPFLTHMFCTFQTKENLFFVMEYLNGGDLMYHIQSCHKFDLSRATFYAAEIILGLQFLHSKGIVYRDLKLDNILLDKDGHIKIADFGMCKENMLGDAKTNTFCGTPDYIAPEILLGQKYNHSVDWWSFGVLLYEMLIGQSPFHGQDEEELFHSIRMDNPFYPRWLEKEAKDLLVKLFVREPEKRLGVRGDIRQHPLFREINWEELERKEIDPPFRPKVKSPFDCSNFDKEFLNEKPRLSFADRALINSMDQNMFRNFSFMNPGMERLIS
RAF proto-oncogene serine/threonine-protein kinase (Homo sapiens), P04049 [Y340D,Y341D], sequence (P04049 whole entry Y340D/Y341D, the tested form may be a part): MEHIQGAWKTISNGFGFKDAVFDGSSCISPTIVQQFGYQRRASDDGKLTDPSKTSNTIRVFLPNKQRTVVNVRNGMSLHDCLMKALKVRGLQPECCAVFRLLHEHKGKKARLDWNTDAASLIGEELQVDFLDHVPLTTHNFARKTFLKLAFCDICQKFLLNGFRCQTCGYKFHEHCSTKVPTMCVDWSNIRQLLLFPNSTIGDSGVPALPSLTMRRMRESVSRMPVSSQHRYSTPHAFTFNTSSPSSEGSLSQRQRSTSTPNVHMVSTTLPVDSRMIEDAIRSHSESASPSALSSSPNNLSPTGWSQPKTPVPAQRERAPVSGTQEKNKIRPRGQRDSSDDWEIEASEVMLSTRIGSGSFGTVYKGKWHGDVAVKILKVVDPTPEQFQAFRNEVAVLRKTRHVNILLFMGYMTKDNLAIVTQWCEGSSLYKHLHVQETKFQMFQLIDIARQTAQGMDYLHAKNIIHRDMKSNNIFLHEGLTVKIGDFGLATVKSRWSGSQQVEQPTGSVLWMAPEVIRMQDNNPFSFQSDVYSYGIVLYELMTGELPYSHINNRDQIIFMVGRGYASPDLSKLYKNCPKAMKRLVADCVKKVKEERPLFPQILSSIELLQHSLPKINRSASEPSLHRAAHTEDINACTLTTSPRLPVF
Serine/threonine-protein kinase 25 (Homo sapiens), sequence (O00506 whole entry, looked up): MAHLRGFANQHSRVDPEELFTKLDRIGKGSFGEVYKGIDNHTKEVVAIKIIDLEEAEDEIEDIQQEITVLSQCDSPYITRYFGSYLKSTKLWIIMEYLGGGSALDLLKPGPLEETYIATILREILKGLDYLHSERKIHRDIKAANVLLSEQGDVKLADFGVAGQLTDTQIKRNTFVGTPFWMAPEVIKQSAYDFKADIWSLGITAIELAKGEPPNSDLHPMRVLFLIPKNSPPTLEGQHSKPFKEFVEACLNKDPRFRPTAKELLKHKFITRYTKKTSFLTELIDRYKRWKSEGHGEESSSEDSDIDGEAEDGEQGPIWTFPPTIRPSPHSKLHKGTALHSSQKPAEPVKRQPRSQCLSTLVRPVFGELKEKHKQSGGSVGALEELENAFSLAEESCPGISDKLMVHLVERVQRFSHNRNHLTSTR

CNC(=O)Nc1ccc(-c2nc(N3CC4CCC(C3)O4)c3cnn(C4CCC5(CC4)OCCO5)c3n2)cc1
pIC50 [1]: 5.90 | inhibition [2]: 0% | inhibition [3]: -6% | inhibition [4]: 0% | inhibition [5]: 3% | inhibition [6]: 1% | inhibition [7]: 1% | inhibition [8]: 5% | inhibition [9]: 10% | inhibition [10]: 13% | inhibition [11]: 5% | inhibition [12]: 0% | inhibition [13]: 12% | inhibition [14]: -8% | inhibition [15]: -1% | inhibition [16]: 2% | inhibition [17]: 2% | inhibition (Rat1): inactive | pIC50 (MDA-MB-468): 7.60 | pIC50 (PC3MM2): 8.70 | Activity (NCI-H1975): Active | Activity (MDA-MB-361 [18]): Active | Activity (MDA-MB-361 [19]): 12% | inhibition at 0.3 µM (MDA-MB-361 [20]): ~50% | Activity (A549 [21]): 100% | Activity (A549 [22]): Active
